{"source": "patent US20250122182A1", "about": "(Isosterix, Inc., priority 2023, published 2025)", "biological_target": "Recombinant KAT6A/MOZ (488-778) protein (Homo sapiens (Human), UniProt Q92794)", "sequence (Q92794 488-778)": "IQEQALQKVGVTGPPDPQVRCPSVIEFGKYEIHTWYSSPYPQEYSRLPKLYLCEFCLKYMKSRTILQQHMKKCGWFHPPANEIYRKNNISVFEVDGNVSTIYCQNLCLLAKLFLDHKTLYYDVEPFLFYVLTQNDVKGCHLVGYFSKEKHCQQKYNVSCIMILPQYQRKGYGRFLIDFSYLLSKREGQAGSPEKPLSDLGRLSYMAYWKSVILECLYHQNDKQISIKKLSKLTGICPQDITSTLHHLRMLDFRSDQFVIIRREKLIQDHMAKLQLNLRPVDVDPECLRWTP", "assay": "KAT6A AlphaLISA Inhibition Screening Assay", "format": "biochemical", "conditions": "for inhibition at 1 µM: read-out: Average Kat6A % inhibition @ 1 μM; for inhibition at 1 µM / Average Kat6A % inhibition @ 1 μM: 1 μM test compound; for inhibition at 10 µM: read-out: Average Kat6A % inhibition @ 10 μM; for inhibition at 10 µM / Average Kat6A % inhibition @ 10 μM: 10 μM test compound", "how_it_was_run": "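AlphaLISA read-out with anti-acetyl-lysine acceptor and streptavidin donor beads, % inhibition relative to vehicle. Reaction: biotinylated histone H3 1-21 (200 nM) and acetyl-CoA (400 nM) with KAT6A 488-778 (25 nM), 120 min at room temperature, pH 8.0, 330 nM TSA, after 60 or 10 min enzyme–compound pre-incubation; 10-point 3-fold series from 10 μM.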", "data": [{"molecule": "COc1cc(C)c(C)cc1S(=O)(=O)Nc1noc2cc(Cn3cc(CNS(C)(=O)=O)cn3)cc(OC)c12", "note": "[Syn. Ex. 20, 2-methoxy-N-(4-methoxy-6-((4-(methylsulfonamidomethyl)-1H-pyrazol-1-yl)methyl)benzo[d]isoxazol-3-yl)-4,5-dimethylbenzenesulfonamide]", "values": [{"measurement": "inhibition at 1 µM", "value": 100, "unit": "%"}, {"measurement": "inhibition at 10 µM", "value": 100, "unit": "%"}]}, {"molecule": "C=C(F)C(=O)NCc1csc(Oc2cc(OC)c3c(NS(=O)(=O)c4cc(CC)ccc4OC)noc3c2)n1", "note": "[Syn. Ex. 105, N-((2-((3-((5-ethyl-2-methoxyphenyl)sulfonamido)-4-methoxybenzo[d]isoxazol-6-yl)oxy)thiazol-4-yl)methyl)-2-fluoroacrylamide]", "values": [{"measurement": "inhibition at 1 µM", "value": 68, "unit": "%"}, {"measurement": "inhibition at 10 µM", "value": 99, "unit": "%"}]}, {"molecule": "C#CC(=O)N1Cc2cn(Cc3cc(OC)c4c(NS(=O)(=O)c5cc(OC)ccc5OC)noc4c3)nc2C1", "note": "[Syn. Ex. 5, 2,5-dimethoxy-N-(4-methoxy-6-((5-propioloyl-5,6-dihydropyrrolo[3,4-c]pyrazol-2(4H)-yl)methyl)benzo[d]isoxazol-3-yl)benzenesulfonamide]", "values": [{"measurement": "inhibition at 1 µM", "value": 83, "unit": "%"}, {"measurement": "inhibition at 10 µM", "value": 100, "unit": "%"}]}, {"molecule": "COc1ccc(S(=O)(=O)Nc2noc3cc(Cn4cc(CNS(C)(=O)=O)cn4)cc(OC)c23)c(OC)c1", "note": "[Syn. Ex. 10, 2,4-dimethoxy-N-(4-methoxy-6-((4-(methylsulfonamidomethyl)-1H-pyrazol-1-yl)methyl)benzo[d]isoxazol-3-yl)benzenesulfonamide]", "values": [{"measurement": "inhibition at 1 µM", "value": 100, "unit": "%"}, {"measurement": "inhibition at 10 µM", "value": 100, "unit": "%"}]}, {"molecule": "C=C(F)C(=O)NCc1cnn(Cc2cc(OC)c3c(NS(=O)(=O)c4ccccc4OCc4ccccc4)noc3c2)c1", "note": "[Syn. Ex. 36, N-((1-((3-((2-(benzyloxy)phenyl)sulfonamido)-4-methoxybenzo[d]isoxazol-6-yl)methyl)-1H-pyrazol-4-yl)methyl)-2-fluoroacrylamide]", "values": [{"measurement": "inhibition at 1 µM", "value": 93, "unit": "%"}, {"measurement": "inhibition at 10 µM", "value": 97, "unit": "%"}]}, {"molecule": "CCc1ccc(S(=O)(=O)Nc2noc3cc(Cn4cc(CNC(=O)OC)cn4)cc(OC)c23)c(OC)c1", "note": "[Syn. Ex. 125, methyl ((1-((3-((4-ethyl-2-methoxyphenyl)sulfonamido)-4-methoxybenzo[d]isoxazol-6-yl)methyl)-1H-pyrazol-4-yl)methyl)carbamate]", "values": [{"measurement": "inhibition at 1 µM", "value": 100, "unit": "%"}, {"measurement": "inhibition at 10 µM", "value": 101, "unit": "%"}]}, {"molecule": "C=C(F)C(=O)NCc1cnn(Cc2cc(OC)c3c(NS(=O)(=O)c4cc(CC)ccc4OCC(=O)N4CCOCC4)noc3c2)c1", "note": "[Syn. Ex. 68, N-((1-((3-((5-ethyl-2-(2-morpholino-2-oxoethoxy)phenyl)sulfonamido)-4-methoxybenzo[d]isoxazol-6-yl)methyl)-1H-pyrazol-4-yl)methyl)-2-fluoroacrylamide]", "values": [{"measurement": "inhibition at 1 µM", "value": 96, "unit": "%"}, {"measurement": "inhibition at 10 µM", "value": 100, "unit": "%"}]}, {"molecule": "CCc1ccc(OCCN)c(S(=O)(=O)Nc2noc3cc(Cn4cc(CNC(=O)OC)cn4)cc(OC)c23)c1", "note": "[Syn. Ex. 75, methyl ((1-((3-((2-(2-aminoethoxy)-5-ethylphenyl)sulfonamido)-4-methoxybenzo[d]isoxazol-6-yl)methyl)-1H-pyrazol-4-yl)methyl)carbamate]", "values": [{"measurement": "inhibition at 1 µM", "value": 59, "unit": "%"}, {"measurement": "inhibition at 10 µM", "value": 92, "unit": "%"}]}, {"molecule": "CCc1ccc(OC)c(S(=O)(=O)Nc2noc3cc(Cn4cc(CNC(=O)C#CCO)cn4)cc(OC)c23)c1", "note": "[Syn. Ex. 49, N-((1-((3-((5-ethyl-2-methoxyphenyl)sulfonamido)-4-methoxybenzo[d]isoxazol-6-yl)methyl)-1H-pyrazol-4-yl)methyl)-4-hydroxybut-2-ynamide]", "values": [{"measurement": "inhibition at 1 µM", "value": 94, "unit": "%"}, {"measurement": "inhibition at 10 µM", "value": 100, "unit": "%"}]}, {"molecule": "CCc1ccc(OCc2ccccc2)c(S(=O)(=O)Nc2noc3cc(Cn4cc(CNC(=O)OC)cn4)cc(OC)c23)c1", "note": "[Syn. Ex. 93, methyl ((1-((3-((2-(benzyloxy)-5-ethylphenyl)sulfonamido)-4-methoxybenzo[d]isoxazol-6-yl)methyl)-1H-pyrazol-4-yl)methyl)carbamate]", "values": [{"measurement": "inhibition at 1 µM", "value": 90, "unit": "%"}, {"measurement": "inhibition at 10 µM", "value": 98, "unit": "%"}]}, {"molecule": "C=C(F)C(=O)NCc1cnn(Cc2cc(OC)c3c(NS(=O)(=O)c4cc(CC)ccc4OCCO)noc3c2)c1", "note": "[Syn. Ex. 113, N-((1-((3-((5-ethyl-2-(2-hydroxyethoxy)phenyl)sulfonamido)-4-methoxybenzo[d]isoxazol-6-yl)methyl)-1H-pyrazol-4-yl)methyl)-2-fluoroacrylamide]", "values": [{"measurement": "inhibition at 1 µM", "value": 98, "unit": "%"}, {"measurement": "inhibition at 10 µM", "value": 100, "unit": "%"}]}, {"molecule": "C=C(F)C(=O)NCc1ccnc(Oc2cc(OC)c3c(NS(=O)(=O)c4cc(CC)ccc4OC)noc3c2)c1", "note": "[Syn. Ex. 111, N-((2-((3-((5-ethyl-2-methoxyphenyl)sulfonamido)-4-methoxybenzo[d]isoxazol-6-yl)oxy)pyridin-4-yl)methyl)-2-fluoroacrylamide]", "values": [{"measurement": "inhibition at 1 µM", "value": 0, "unit": "%"}, {"measurement": "inhibition at 10 µM", "value": 54, "unit": "%"}]}, {"molecule": "COc1ccc(C(C)C)cc1S(=O)(=O)Nc1noc2cc(Cn3cc(CNS(C)(=O)=O)cn3)cc(OC)c12", "note": "[Syn. Ex. 38, 5-isopropyl-2-methoxy-N-(4-methoxy-6-((4-(methylsulfonamidomethyl)-1H-pyrazol-1-yl)methyl)benzo[d]isoxazol-3-yl)benzenesulfonamide]", "values": [{"measurement": "inhibition at 1 µM", "value": 100, "unit": "%"}, {"measurement": "inhibition at 10 µM", "value": 99, "unit": "%"}]}, {"molecule": "C=C(F)C(=O)NCc1cnn(Cc2cc(OC)c3c(NS(=O)(=O)c4ccccc4OC)noc3c2)c1", "note": "[Syn. Ex. 40, 2-fluoro-N-((1-((4-methoxy-3-((2-methoxyphenyl)sulfonamido)benzo[d]isoxazol-6-yl)methyl)-1H-pyrazol-4-yl)methyl)acrylamide]", "values": [{"measurement": "inhibition at 1 µM", "value": 99, "unit": "%"}, {"measurement": "inhibition at 10 µM", "value": 99, "unit": "%"}]}, {"molecule": "C=C(F)C(=O)Nc1ccc(Oc2cc(OC)c3c(NS(=O)(=O)c4cc5c(cc4OC)CCC5)noc3c2)nc1", "note": "[Syn. Ex. 144, 2-fluoro-N-(6-((4-methoxy-3-((6-methoxy-2,3-dihydro-1H-indene)-5-sulfonamido)benzo[d]isoxazol-6-yl)oxy)pyridin-3-yl)acrylamide]", "values": [{"measurement": "Average Kat6A % inhibition @ 1 μM", "value": 101, "unit": "%"}, {"measurement": "Average Kat6A % inhibition @ 10 μM", "value": 99, "unit": "%"}]}, {"molecule": "C=C(F)C(=O)NCc1cnc(Oc2cc(OC)c3c(NS(=O)(=O)c4cc5c(cc4OC)CCC5)noc3c2)s1", "note": "[Syn. Ex. 143, 2-fluoro-N-((2-((4-methoxy-3-((6-methoxy-2,3-dihydro-1H-indene)-5-sulfonamido)benzo[d]isoxazol-6-yl)oxy)thiazol-5-yl)methyl)acrylamide]", "values": [{"measurement": "Average Kat6A % inhibition @ 1 μM", "value": 101, "unit": "%"}, {"measurement": "Average Kat6A % inhibition @ 10 μM", "value": 99, "unit": "%"}]}, {"molecule": "CCc1ccc(OC)c(S(=O)(=O)Nc2noc3cc(Cn4cc(CNC(=O)OCCO)cn4)cc(OC)c23)c1", "note": "[Syn. Ex. 34, 2-hydroxyethyl ((1-((3-((5-ethyl-2-methoxyphenyl)sulfonamido)-4-methoxybenzo[d]isoxazol-6-yl)methyl)-1H-pyrazol-4-yl)methyl)carbamate]", "values": [{"measurement": "inhibition at 1 µM", "value": 86, "unit": "%"}, {"measurement": "inhibition at 10 µM", "value": 100, "unit": "%"}]}, {"molecule": "C=C(F)C(=O)NCc1cnn(Cc2cc(OC)c3c(NS(=O)(=O)c4cc(CC)ccc4OCc4cnn[nH]4)noc3c2)c1", "note": "[Syn. Ex. 114, N-((1-((3-((2-((1H-1,2,3-triazol-5-yl)methoxy)-5-ethylphenyl)sulfonamido)-4-methoxybenzo[d]isoxazol-6-yl)methyl)-1H-pyrazol-4-yl)methyl)-2-fluoroacrylamide]", "values": [{"measurement": "inhibition at 1 µM", "value": 100, "unit": "%"}, {"measurement": "inhibition at 10 µM", "value": 100, "unit": "%"}]}, {"molecule": "COC(=O)NCc1cnn(Cc2cc(OC)c3c(NS(=O)(=O)c4cc(C(F)F)ccc4OC)noc3c2)c1", "note": "[Syn. Ex. 135, methyl ((1-((3-((5-(difluoromethyl)-2-methoxyphenyl)sulfonamido)-4-methoxybenzo[d]isoxazol-6-yl)methyl)-1H-pyrazol-4-yl)methyl)carbamate]", "values": [{"measurement": "inhibition at 1 µM", "value": 96, "unit": "%"}, {"measurement": "inhibition at 10 µM", "value": 97, "unit": "%"}]}, {"molecule": "C=C(F)C(=O)NCc1cnn(Cc2cc(OC)c3c(NS(=O)(=O)c4cc(CC)ccc4OCc4ccnc(OC)c4)noc3c2)c1", "note": "[Syn. Ex. 94, N-((1-((3-((5-ethyl-2-((2-methoxypyridin-4-yl)methoxy)phenyl)sulfonamido)-4-methoxybenzo[d]isoxazol-6-yl)methyl)-1H-pyrazol-4-yl)methyl)-2-fluoroacrylamide]", "values": [{"measurement": "inhibition at 1 µM", "value": 100, "unit": "%"}, {"measurement": "inhibition at 10 µM", "value": 100, "unit": "%"}]}, {"molecule": "CCOC(=O)NCc1cnn(Cc2cc(OC)c3c(NS(=O)(=O)c4cc(CC)ccc4OC)noc3c2)c1", "note": "[Syn. Ex. 16, ethyl ((1-((3-((5-ethyl-2-methoxyphenyl)sulfonamido)-4-methoxybenzo[d]isoxazol-6-yl)methyl)-1H-pyrazol-4-yl)methyl)carbamate]", "values": [{"measurement": "inhibition at 1 µM", "value": 98, "unit": "%"}, {"measurement": "inhibition at 10 µM", "value": 98, "unit": "%"}]}, {"molecule": "CCc1ccc(OC)c(S(=O)(=O)Nc2noc3cc(Cn4cc(CNC(=O)OC)cn4)c4c(c23)OCCC4)c1", "note": "[Syn. Ex. 97, methyl ((1-((9-((5-ethyl-2-methoxyphenyl)sulfonamido)-3,4-dihydro-2H-chromeno[8,7-d]isoxazol-5-yl)methyl)-1H-pyrazol-4-yl)methyl)carbamate]", "values": [{"measurement": "inhibition at 1 µM", "value": 100, "unit": "%"}, {"measurement": "inhibition at 10 µM", "value": 100, "unit": "%"}]}, {"molecule": "C=C(F)C(=O)NCc1cnn(Cc2cc(OC)c3c(NS(=O)(=O)c4cc(CC)ccc4OCC#N)noc3c2)c1", "note": "[Syn. Ex. 43, N-((1-((3-((2-(cyanomethoxy)-5-ethylphenyl)sulfonamido)-4-methoxybenzo[d]isoxazol-6-yl)methyl)-1H-pyrazol-4-yl)methyl)-2-fluoroacrylamide]", "values": [{"measurement": "inhibition at 1 µM", "value": 96, "unit": "%"}, {"measurement": "inhibition at 10 µM", "value": 98, "unit": "%"}]}, {"molecule": "CCc1ccc(OC)c(S(=O)(=O)Nc2noc3cc(Cn4cc(CNC(=O)OC)cn4)cc(OC)c23)c1", "note": "[Syn. Ex. 17, methyl ((1-((3-((5-ethyl-2-methoxyphenyl)sulfonamido)-4-methoxybenzo[d]isoxazol-6-yl)methyl)-1H-pyrazol-4-yl)methyl)carbamate]", "values": [{"measurement": "inhibition at 1 µM", "value": 99, "unit": "%"}, {"measurement": "inhibition at 10 µM", "value": 100, "unit": "%"}]}, {"molecule": "CCc1ccc(OCC(=O)N2CCOCC2)c(S(=O)(=O)Nc2noc3cc(Cn4cc(CNC(=O)OC)cn4)cc(OC)c23)c1", "note": "[Syn. Ex. 66, methyl ((1-((3-((5-ethyl-2-(2-morpholino-2-oxoethoxy)phenyl)sulfonamido)-4-methoxybenzo[d]isoxazol-6-yl)methyl)-1H-pyrazol-4-yl)methyl)carbamate]", "values": [{"measurement": "inhibition at 1 µM", "value": 93, "unit": "%"}, {"measurement": "inhibition at 10 µM", "value": 100, "unit": "%"}]}]}
